Test results reported in patent US8138119B2, “Alkoxyalkyl spirocyclic tetramic acids and tetronic acids” (Bayer Cropscience AG, priority 2005, dated 2012).

Key:
Assay type in all cases: in vivo
Details in all cases: 100 ppm, cabbage leaves dipped
[1] = test system: caterpillars of the diamondback moth (Plutella xylostella); assay: Plutella test (PLUTMA)
Procedure: (§1) Solvent: 7 parts by weight of dimethylformamide
(§2) Emulsifier: 2 parts by weight of alkylaryl polyglycol ether
(§3) To produce a suitable preparation of active compound, 1 part by weight of active compound is mixed with the stated amounts of solvent and emulsifier, and the concentrate is diluted with emulsifier-containing water to the desired concentration.
Cabbage leaves (Brassica oleracea) are treated by being dipped into the active compound preparation of the desired concentration and populated with caterpillars of the diamondback moth (Plutella xylostella) while the leaves are still moist.
(§4) After the desired period of time, the kill in % is determined. 100% means that all caterpillars have been killed; 0% means that none of the caterpillars have been killed.

[2] = test system: caterpillars of the armyworm (Spodoptera exigua, resistant strain); assay: Spodoptera exigua test; resistant strain (SPODEX R)
Procedure: as §1, §2, §3
Cabbage leaves (Brassica oleracea) are treated by being dipped into the active compound preparation of the desired concentration and populated with caterpillars of the armyworm (Spodoptera exigua, resistant strain) while the leaves are still moist.
as §4

[3] = test system: caterpillars of the armyworm (Spodoptera exigua); assay: Spodoptera exigua test (SPODEX)
Procedure: as §1, §2
To produce a suitable preparation of active compound, 1 part by weight of active compound is mixed with the stated amounts of solvent and emulsifier, and the concentrate is diluted with water to the desired concentration.
Cabbage leaves (Brassica oleracea) are treated by being dipped into the active compound preparation of the desired concentration and populated with caterpillars of the armyworm (Spodoptera exigua) while the leaves are still moist.
as §4

Measured: efficacy (kill of caterpillars)

COCC1CCC2(CC1)NC(=O)C(c1cc(-c3ccc(Cl)cc3)ccc1C)=C2O (single isomer, unassigned) [Example I-1-a-5]
≥ 80%: all assays above
